Measured values taken from paper PMC12431657, “Discovery and mechanistic insights of dibenzoylmethane as a broad spectrum inhibitor of coronavirus” (PLOS Pathogens, 2025).
Structures can show the parent of a compound that is named as a salt.

Assays:
HCoV-229E = tested on: HCoV-229E; set-up: species or system Huh-7; HTS, protection from HCoV-229E induced cell death, luminescent cell viability (CellCounting-Lite 2.0), inhibition rate; details: 24 h, 10 µM; inhibitor
HCoV-OC43 = tested on: HCoV-OC43; set-up: species or system RD; HTS, protection from HCoV-OC43 induced cell death, luminescent cell viability (CellCounting-Lite 2.0), inhibition rate; details: 24 h, 10 µM; inhibitor

| Structure (SMILES) | 229E Inhibition rate (HCoV-229E) | OC43 Inhibition rate (HCoV-OC43) |
| --- | --- | --- |
| O=C1C=C2C=C[C@@H]3C[C@@]2(O1)[C@H]1CCCCN31 [(-)-Securinine] | 43% | 38.4% |
| CC[C@@]1(O)C(=O)OCc2c1cc1n(c2=O)Cc2cc3cc(O)ccc3nc2-1 [(S)-10-Hydroxycamptothecin] | 18.7 | -0.8 |
| O=C1C=C2C=C[C@@H]3C[C@@]2(O1)[C@@H]1CCCCN31 [Allosecurinine] | 21.3% | 19.8% |
| N#C[C@H](O[C@@H]1O[C@H](CO[C@@H]2O[C@H](CO)[C@@H](O)[C@H](O)[C@H]2O)[C@@H](O)[C@H](O)[C@H]1O)c1ccccc1 [Amygdalin] | 20.7% | 0.1% |
| CC[C@@H]1/C=C(\C)C[C@H](C)C[C@H](OC)[C@H]2O[C@@](O)(C(=O)C(=O)N3CCCC[C@H]3C(=O)O[C@H](/C(C)=C/[C@@H]3CC[C@@H](O)[C@H](OC)C3)[C@H](C)[C@@H](O)CC1=O)[C@H](C)C[C@@H]2OC [Ascomycin] | 17.9 | 12.5 |
| CC(C)[C@H]1OC(=O)[C@H](Cc2ccccc2)N(C)C(=O)[C@@H](C(C)C)OC(=O)[C@H](Cc2ccccc2)N(C)C(=O)[C@@H](C(C)C)OC(=O)[C@H](Cc2ccccc2)N(C)C1=O [Beauvericin] | 24.3 | -1.9 |
| C/C=C\c1cc(OC)c(OC)cc1OC [Beta-asarone] | 28.9% | 0.1% |
| CN1CCc2cc3c(cc2[C@H]1[C@@H]1OC(=O)c2c1ccc1c2OCO1)OCO3 [Bicuculline] | 0% | -0.3% |
| C[C@]12CC[C@H](O)C[C@H]1CC[C@@H]1[C@@H]2CC[C@]2(C)[C@@H](c3ccc(=O)oc3)CC[C@]12O [Bufalin] | 19.3% | -7.6% |
| CC[C@H]1CN2CCc3cc(OC)c(OC)cc3[C@@H]2C[C@@H]1C[C@H]1NCCc2cc(O)c(OC)cc21 [Cephaeline (dihydrochloride)] | 17.7% | 7.6% |
| CC(=O)O[C@H]1[C@H]2O[C@]23[C@@H]2CC[C@]4(O)C[C@@H](O)CC[C@]4(C)[C@H]2CC[C@]3(C)[C@H]1c1ccc(=O)oc1 [Cinobufotalin] | 9.3% | 11.4% |
| CC1=C2C(=CO[C@H](C)[C@H]2C)C(O)=C(C(=O)O)C1=O [Citrinin] | 12% | -8.1% |
| COc1cc2c(c(OC)c1OC)-c1ccc(OC)c(=O)cc1[C@@H](NC(C)=O)CC2 [Colchicine] | 13.9 | -3.5 |
| CC(=O)C1=C(O)[C@@H]2[C@H]3c4c[nH]c5cccc(c45)C[C@H]3C(C)(C)N2C1=O [Cyclopiazonic acid] | 0% | 0% |
| CO[C@H]1CC=C2CCN3CCC4=C(CC(=O)OC4)[C@]23C1 [Dihydro-β-erythroidine (hydrobromide)] | 0% | -0.7% |
| COc1cc(CNC(=O)CCCCCCC(C)C)ccc1O [Dihydrocapsaicin] | 7.8 | 7.9 |
| C=C(C)c1cc2cc(C(C)=O)c(O)cc2o1 [Euparin] | 14.2% | 4.4% |
| C=C[C@@H](O)C#CC#C[C@@H](O)/C=C\CCCCCCC [Falcarindiol] | 34% | -0.3% |

| Structure (SMILES) | 229E Inhibition rate (HCoV-229E) | OC43 Inhibition rate (HCoV-OC43) |
| --- | --- | --- |
| CCc1c(Cl)c(O)c(Cl)c(O)c1C(=O)O[C@H]1[C@H](O)[C@H](OC)[C@H](OC/C2=C\C=C\C[C@H](O)/C(C)=C/[C@H](CC)[C@@H](O[C@@H]3OC(C)(C)[C@@H](OC(=O)C(C)C)[C@H](O)[C@@H]3O)/C(C)=C/C(C)=C/C[C@@H]([C@@H](C)O)OC2=O)O[C@@H]1C [Fidaxomicin] | 27.3 | 15 |
| CCCCc1ccc(C(=O)O)nc1 [Fusaric acid] | 12.7% | 0.1% |
| CN[C@H]1[C@H](O)[C@H](O[C@@H]2[C@@H](O)[C@H](O[C@H]3O[C@H](C(C)O)[C@@H](O)[C@H](O)[C@H]3N)[C@@H](N)C[C@H]2N)OC[C@@]1(C)O (stereo partly drawn) [G-418 (disulfate)] | 29.4% | 4.1% |
| C=C[C@]12CN(C)[C@@H]3[C@H]4CO[C@H](C[C@H]41)[C@]1(C(=O)Nc4ccccc41)[C@@H]32 [Gelsemine] | 21.7% | -0.3% |
| CN1C(=O)[C@]23CC4=CC=C[C@H](O)[C@H]4N2C(=O)[C@@]1(CO)SS3 [Gliotoxin] | 0.7% | -0.7% |
| Cc1nccc2c1[nH]c1ccccc12 [Harmane] | 0% | 0.2% |
| COc1ccc2c(c1OC)C(=O)O[C@@H]2[C@H]1c2cc3c(cc2CCN1C)OCO3 [Hydrastine] | 28.1% | -0.2% |
| COc1c2c3c4c(c(OC)c(=O)c5c(O)cc(OC)c(c6c(OC)cc(O)c(c1=O)c63)c54)[C@@H](C(C)=O)[C@@](C)(O)C2 [Hypocrellin A] | 4.6% | -1.7% |
| N[C@H](C(=O)O)c1cc(O)no1 [Ibotenic acid] | 11.4% | 3.8% |
| CC1=C2C(=O)[C@H]3[C@@H](CC=C4C[C@@H](O)CC[C@@]43C)[C@@H]2CC[C@]12O[C@@H]1C[C@H](C)CN[C@H]1[C@H]2C [Jervine] | 3.8% | -0.3% |
| C=C(C)[C@H]1CN[C@H](C(=O)O)[C@H]1CC(=O)O [Kainic acid] | 14.3% | 2.1% |
| CCC(=O)O[C@@H]1CC(=O)O[C@H](C)C/C=C/C=C/[C@H](O)[C@H](C)C[C@H](CC=O)[C@H](O[C@@H]2O[C@H](C)[C@@H](O[C@H]3C[C@@](C)(O)[C@@H](OC(=O)CC)[C@H](C)O3)[C@H](N(C)C)[C@H]2O)[C@H]1OC [Midecamycin] | 12.9 | -1.1 |
| N#C[C@@H](O[C@@H]1O[C@H](CO[C@@H]2O[C@H](CO)[C@@H](O)[C@H](O)[C@H]2O)[C@@H](O)[C@H](O)[C@H]1O)c1ccccc1 [Neoamygdalin] | 63.2% | -0.4% |
| O=C1C=C2C(=CCOC2O)O1 (stereo not drawn) [Patulin] | 3.7% | -3.1% |
| C[C@H]1CCC2N(C1)C[C@H]1C3CC4[C@@H](CC(=O)C5C[C@@H](O)CC[C@@]54C)C3CCC1[C@]2(C)O (stereo partly drawn) [Peiminine] | 21.8% | 1% |
| CC(C)CCC(=O)c1ccoc1 [Perilla ketone] | 9.1% | 2.5% |
| CC(C)C1=CC(=O)[C@@](C)([C@H]2[C@H](O)C[C@@]3(C)[C@@H]4CC=C5[C@@H](CC[C@@H](O[C@@H]6OC[C@@H](O)[C@H](O)[C@H]6O[C@@H]6O[C@@H](C)[C@H](O)[C@@H](O)[C@H]6O)C5(C)C)[C@]4(C)C(=O)C[C@]23C)O1 [Picfeltarraenin IA] | 0% | -0.3% |
| C[C@@H]1O[C@@H](O[C@@H]2C=C3CC[C@@H]4[C@H](CC[C@]5(C)[C@@H](c6ccc(=O)oc6)CC[C@]45O)[C@@]3(C)CC2)[C@H](O)[C@H](O)[C@H]1O [Proscillaridin A] | 21.1% | -0.6% |
